Laboratory results from publication PMC2225439, “Amyloid as a Depot for the Formulation of Long-Acting Drugs” (PLoS Biology, 2008).

Assays:
[1] = Thio T binding (amyloid fibril formation); type: physicochemical; set-up: key to Thio T Binding: b, binding; n, not binding; settings: 1 mg/ml in 5% D-mannitol, 0.01% sodium azide, room temperature without stirring, monitored daily over 21 d; fluorescence ex 450 nm / em 482 nm; three independent experiments
Protocol: The kinetics of fibril formation in vitro is generally a slow process over several days or weeks, and can be monitored by the increase of fluorescence intensity of the cross-β-sheet–sensitive dye, Thio T [15]. Thio T fluorescence is thereby insignificant during the initial incubation period of amyloid aggregation due to the nonexistence of Thio T–sensitive β-sheet aggregates. After the initial phase, a time-dependent increase of fluorescence intensity is observed until a maximum intensity is reached, at which time maximal fibril formation has occurred. […] For the Thio T binding studies, all GnRH analogs were incubated at room temperature at a concentration of 1 mg/ml in 5% D-mannitol, conditions identical to the formulation used in the animal experiments. In addition, 0.01% sodium azide was added. The Thio T fluorescence was monitored daily for all analogs over a period of 21 d (Figure 1).
(§1) GnRH analogs were dissolved in a glass tube in 1 ml of 5% D-mannitol and 0.01% sodium azide at a concentration of 1 mg/ml. The GnRH analogs were then incubated at room temperature without stirring. The fibril formation was monitored by EM, CR, and time-resolved by Thio T binding studies. Three independent experiments were performed for each sample.
A 10-μl aliquot of peptide sample was diluted into 500 μl of water with 5% D-mannitol containing 0.01% (w/v) sodium azide. The solution was mixed with 10 μl of 1 mM Thio T prepared in the same solution. Fluorescence was measured immediately after addition of Thio T. The experiment was measured on a spectrofluorimeter (Photon Technology International) with excitation at 450 nm and emission at 482 nm. The fluorescence intensity at 482 nm was plotted against incubation time (day). A rectangular 10-mm quartz microcuvette was used. Three independent experiments were performed for each sample.

Congo red (CR) binding = type: physicochemical; set-up: key to Congo Red: b, binding; n, not binding; settings: analogs incubated for 30 d; for Congo Red: 1 mg/ml in 5% D-mannitol, 0.01% sodium azide, room temperature, UV 300–700 nm and by eye, three independent experiments
Protocol: To confirm amyloid formation by GnRH analogs, CR binding was measured. CR, like Thio T, is a dye routinely used to detect β-sheet–rich assemblies. CR binding can be measured by the “red shift” change of its absorption maximum from 490 to 540 nm, by an increase of the dye's molar absorptivity, and in favorable cases by eye. All three types of measurements were performed with GnRH analogs incubated for 30 d. […] However, five short-acting GnRH analogs, i.e., S3, S4, S6, S10, and S11, bind CR, showing that some short-acting GnRH-analogs are able to form amyloids after prolonged incubation (see also below). In contrast to short-acting analogs, all long-acting analogs bind CR.
as §1
A 5-μl aliquot of peptide sample was mixed with 80 μl of PBS buffer containing 10% ethanol. Then 15 μl of a 100 μM CR solution (filtered through 0.2-μm filter) in PBS containing 10% ethanol was added. After mixing, UV was measured from 300–700 nm. For the measurement of the CR-only spectrum, 15 μl of CR solution with 85 μl of PBS containing 10% ethanol was prepared. As a control, a 5-μl aliquot of GnRH analog mixed with 95 μl of PBS containing 10% ethanol was measured. Three independent experiments were performed for each sample. In addition to the UV measurements, pictures of the cuvette containing the peptide sample and CR were taken to visually show the CR binding to the amyloids.

[2] = Electron microscopy of negative-stained samples; type: physicochemical; set-up: key to EM^8 / EM^30: fib, fibrils; nfib, no fibrils; settings: for EM, formation of amyloid-like fibrils at day 30 (in words): 30 d of incubation; for EM^8: electron microscopy at day 8 of incubation; for EM^8 / EM^30: 1 mg/ml in 5% D-mannitol, room temperature, at least two independent experiments; for EM^30: electron microscopy at day 30 of incubation; for EM, formation of amyloid-like fibrils at day 8 (in words): 8 d of incubation
Protocol: To formally determine the formation of amyloid fibrils by GnRH analogs and to characterize other possible assemblies present in the sample, EM was done on all of the GnRH analogs. Since the EM analysis is for a qualitative interpretation only, amyloid fibrils and other small aggregates might be observed under the electron microscope even if only a minority of the sample forms fibrils. Samples were studied after 8 and 30 d of incubation. […] The fibrils show a wide variety of morphologies, comprising helical ultrastructures with varying degrees of lateral association. Furthermore, the fibrils are composed of one or more filaments, resulting in overall diameters ranging from approximately 6 to 12 nm. No oligomers are observed for the long-acting compounds at day 8 or at day 30 (Figures 2 and S2).
as §1
A 5-μl aliquot of peptide sample was diluted into 50 μl of water to a peptide concentration of approximately 50 μM, spotted on a glow-discharged, carbon-coated Formvar grid (Electron Microscopy Sciences), incubated for 5 min, washed with distilled water, and then stained with 1% (w/v) aqueous uranyl formate solution. Uranyl formate solutions were filtered through 0.2-μm sterile syringe filters (Corning) before use. EM analysis was performed using a JEOL JEM-100CXII electron microscope at 80 kV with nominal magnifications between 36,000 and 72,000. Images were recorded digitally by using the SIS Megaview III imaging system. At least two independent experiments were carried out for each sample.

[3] = Peptide release from amyloid (dialysis experiment); settings: for KD: dissociation constant of the aggregates = final monomer concentration, 200 μl of 30-d-old analog dialyzed against 4 ml 5% D-mannitol, fluorescence ex 280 nm
Protocol: Although amyloid fibrils are very stable, they must follow thermodynamic equilibrium conditions between fibril and monomer. […] A total of 200 μl of 30-d-old GnRH analog (in) was dialyzed 4 ml of 5% D-mannitol (out). A 3.5-kDa cutoff, which is twice the size of the peptides studied, was chosen to ensure that the released particles are most likely monomeric. The peptide release and the remaining aggregates were monitored by fluorescence over 35 d at room temperature.
A 200-μl aliquot of aged GnRH in solution conditions given above was transferred into a 0.6-ml Eppendorf tube with a hole in the cap. To study the effect of heparin on peptide release, a mixture of hormone analog and heparin (1:1 v/v) was incubated overnight in parallel with a half-diluted peptide fibril sample in 5% D-mannitol and 0.01% sodium azide. The hole in the cap of the Eppendorf tube was sealed with a 3.5-kDa molecular weight cutoff (MWCO) membrane. Next, the Eppendorf tube was inserted upside down into a 15-ml Falcon tube containing 4 ml of 5% D-mannitol in water and 0.01% sodium azide. Care was taken to make sure that the membrane was exposed to solutions both in and outside and that any bubbles at the membrane interface were removed. The tubes were then incubated at room temperature. To measure the remaining peptide concentration inside the 0.6-ml Eppendorf tube, a 5-μl aliquot was diluted into 500 μl water with 5% D-mannitol, 0.01% sodium azide, and the fluorescence was measured with excitation at 280 nm and emission in the range of 290–500 nm. The excitation slit width was 2 nm, and emission slit width was 11 nm. To determine the peptide concentration outside the membrane in the 15-ml tube, an aliquot of 250 μl of solution was taken from the releasing medium, diluted into 500 μl final volume by 5% D-mannitol, 0.01% sodium azide, and fluorescence was measured. Following spectra recording, the dialysis system was reassembled as described above. […] The normalized intensity maxima from inside and outside the membrane were plotted as a function of time and fit by an exponential function to extract the half-life of the fibrils and the K off, respectively. […] The extracted half-life, t 1/2, is the time taken, during which the fluorescence signal inside the 0.6-ml Eppendorf tube drops by 50%.

[4] = test system: plasma luteinizing hormone (LH) levels; settings: cited from earlier work; for Action: duration of action class as listed in Table 1, castrated male rat assay, ref Tables S1 and S2
Source text: Table 1 Biochemical and Biophysical Properties of Aggregates By GnRH-Analogs | column: Action || Supplement pbio.0060017.st001.doc, table 1: Table S1: Short acting GnRH analogs with their duration of action | column: Duration of action^b || Supplement pbio.0060017.st002.doc, table 1: Table S2: Long acting GnRH analogs with their duration of action | column: Duration of action^b || (+ 2 further places)

[5] = dialysis, 3.5-kDa cutoff, room temperature, 35 d
[6] = half-life of fibrils: time in which fluorescence inside drops by 50%, dialysis of 30-d-old analog, 3.5-kDa MWCO, 5% D-mannitol, room temperature, 35 d, exponential fit, 2 d = intrinsic diffusion of monomer
[7] = 3.5-kDa MWCO, room temperature, 35 d

Molecule	Thio T Binding [1]	Congo Red (Congo red (CR) binding)	EM, formation of amyloid-like fibrils at day 30 (in words) [2]	EM^8 [2]	EM^30 [2]	time to reach equilibrium of fluorescence inside and outside of the membrane ([3]; dialysis, 3.5-kDa cutoff, room temperature)	K off [3, 5]	t1/2 [3, 5]	t1/2 [3, 6]	duration of action ([4]; ref [29],[30])	KD [3, 7]	Action [4]	EM, formation of amyloid-like fibrils at day 8 (in words) [2]	CR binding (in words) (Congo red (CR) binding)	stability of fibrils from release profile (in words) ([3]; dialysis of 30-d-old samples, 35 d)	Koff ([3]; monomer release from aggregates, dialysis of 30-d-old analog, 3.5-kDa MWCO, 5% D-mannitol, room temperature, 35 d, exponential fit)
CC(C)C[C@H](NC(=O)CNC(=O)[C@H](Cc1ccc(O)cc1)NC(=O)[C@H](CO)NC(=O)[C@H](Cc1c[nH]c2ccccc12)NC(=O)[C@H](Cc1c[nH]cn1)NC(=O)[C@@H]1CCC(=O)N1)C(=O)N[C@@H](CCCNC(=N)N)C(=O)N1CCC[C@H]1C(=O)NCC(N)=O [S12, reference compound]	n	n	do not form any detectable amyloid-like fibrils	nfib	nfib	≤ 3 days	approximately 4 × 10^−6 S^−1	approximately 2 d	48 h	a few hours	–	–	–	–	–	–
Ac-Agl(2-Napht)-DCpa-DPal-Ser-Aph(Ac)-DAph(Ac)-Leu-ILys-Pro-DAla-NH2 [L21]	b	b	–	fib	fib	–	–	–	840 h	–	2 µM	intermediate	–	–	–	–
Ac-Agl(Me,2-Napht)-DCpa-DPal-Ser-Aph(Ac)-DAph(Ac)-Leu-ILys-Pro-DAla-NH2 [S8]	n	n	do not form any detectable amyloid-like fibrils	nfib	nfib	–	–	–	48 h	–	–	very short	–	–	–	–
Ac-D3-Pro-DFpa-DTrp-Ser-Tyr-DTrp-Leu-Arg-Pro-Gly-NH2 [S5, reference compound]	n	n	do not form any detectable amyloid-like fibrils	nfib	nfib	–	–	–	48 h	–	–	–	–	–	–	–
Ac-DNal-DCpa-DPal-Ser-Aph(Atz)-DAph(Atz)-Leu-ILys-Pro-DAla-NH2 [L19, reference compound]	b	b	–	fib	fib	–	–	–	–	–	–	–	–	–	–	–
Ac-DNal-DCpa-DPal-Ser-Arg-DGlu(AA)-Leu-Arg-Pro-DAla-NH2 [S7, reference compound]	n	n	do not form any detectable amyloid-like fibrils	nfib	nfib	–	–	–	48 h	–	–	–	–	–	–	–
des-Ac-[Aph(CO-NH-OCH3)^5]-CH3-(CH2)2-CO-degarelix [L16]	b	b	–	fib	fib	–	–	–	–	–	–	–	Short worm-like protofibrils	–	–	–
des-Ac-[DAph(CONHOCH3)6]Peg-degarelix [S10]	b	b	form amyloid-like fibrils	fib	fib	–	< 2 × 10^−7 S^−1	over 35 d	≫35 day	–	1.0 µM	–	form amyloid-like fibrils	bind CR	form very stable amyloids with very little peptide release	≪2 × 10^−7 s^−1
